Measured values taken from patent publication US20040138301A1, “Chemical uncouplers for the treatment of obesity” (priority 2002, published 2004).
Read-outs that look alike come from different tables or passages of the source.

What was measured:
HEP-G2 cells = test: cells; conditions: for EC50 / Emax / EC (Emax): Homo sapiens; for EC50: HepG2, 3 h; for HEP-G2 Tox: human, 3 h
Method in brief: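 HEP-G2 cells were treated with compound for 3 h at 37 °C in MEM/0.5% BSA containing 10 μCi/ml D-(3-^3H(N))-glucose, then lysed with TCA; ^3H-water released via the respiratory chain was recovered by evaporation at 50 °C and counted. Values are corrected for non-specific and basal counts, expressed as % of maximal FCCP or DNP stimulation, and EC50 is from a variable-slope sigmoidal fit.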

isolated mitochondria = test: Assay (II): effect of chemical uncouplers on mitochondrial respiration using isolated mitochondria (oxygen consumption); format: biochemical
Method: Assay (II)—The Effect of Chemical Uncouplers on Mitochondrial Respiration Using Isolated Mitochondria.
This assay is used to investigate if the increase in glucose utilisation caused by the test compounds observed in the glucose utilisation assay is due to an increase in the respiration of the mitochondria. This is done by measuring oxygen consumption in isolated mitochondria.
A Clark oxygen electrode is used to determine the oxygen consumption. The isolated mitochondria are added to medium containing oxygen and nutrients (e.g. Succinate) and the rate of oxygen consumptions is measured, when stabilized a small amount of ADP is added to increase the respiration and an increase in the rate of oxygen consumption is measured. When the rate of oxygen consumption again has stabilized the test compound is added and a further increase in oxygen consumption is seen. This experiment is done with and without the addition of oligomycin which is an inhibitor of the ATP-synthase. Finally, the test compound is examined without adding ADP. If the test compound stimulates the rate of oxygen consumption in all setups, it is regarded as a chemical uncoupler.

FSK-4 cells = test: Assay (IV): Glucose utilisation in FSK-4 cells; format: cell-based; conditions: for EC50: read-out: FSK4 EC50; for Emax: read-out: FSK4 Emax (% of FCCP)
[1] = humans; cited from earlier work
[2] = HepG2, read-out: HEP-G2 Emax (% of FCCP)
[3] = HepG2, read-out: HEP-G2 Emax (μM)
[4] = read-out: HEP-G2 EC50, HEP-G2 cells, glucose utilisation, 3 hours incubation
[5] = HepG2, read-out: HEP-G2 Emax (% of FCCP), HEP-G2 cells, maximal stimulation relative to FCCP
[6] = HepG2, read-out: HEP-G2 Emax (μM), HEP-G2 cells, concentration at which Emax is achieved (CEmax)
[7] = FSK-4 cells, glucose utilisation, 24 hours incubation
[8] = FSK-4 cells, maximal efficacy relative to FCCP

Row | EC50 (HEP-G2 cells; [4]) [µM] | EC50 (FSK-4 cells; [7]) [µM] | Structure (SMILES) | EC50 (HEP-G2 cells; read-out: HEP-G2 EC50) [µM] | Emax (HEP-G2 cells; [2]) [%] | EC (Emax) (HEP-G2 cells; [3]) [µM] | Mito State-4 (isolated mitochondria) | EC50 (FSK-4 cells; 24 h) [µM] | Emax (FSK-4 cells) [%] | lowest dose which could be lethal relative to average dose giving a desired 50% increase in basal metabolic rate [1] | Emax (HEP-G2 cells; [5]) [%] | EC (Emax) (HEP-G2 cells; [6]) [µM] | HEP-G2 Tox (HEP-G2 cells) | Emax (FSK-4 cells; [8]) [%]
1 |  |  | CC(CCC(=O)O)(c1ccc(O)c([N+](=O)[O-])c1)c1ccc(O)c([N+](=O)[O-])c1 [Example 1, 4,4-Bis-(4-Hydroxy-3-Nitrophenyl)-Valeric Acid] | 40 | 45 | 100 | Ok |  |  |  |  |  |  | 
2 |  |  | CC(C)(C)c1cc(C=C(C#N)C#N)cc(C(C)(C)C)c1O [Example 25, 2,6-Di-t-Butyl-4-(2′,2′-Dicyanovinyl)Phenol, reference compound] | 0.48 | 100 | 10 | Ok | 0.01 | 110 |  |  |  |  | 
3 |  |  | O=[N+]([O-])c1ccc(O)c([N+](=O)[O-])c1 [Example 26, 2,4-Dinitrophenol, reference compound] | 225 | 100 | 500 | Ok | 90 | 95 | twice |  |  |  | 
4 | 0.58 |  | CC(C)(C)c1cc(C(=O)Nc2ccc([N+](=O)[O-])cc2Cl)c(O)c(C(C)(C)C)c1 [Example 40, 3,5-Di-Tert-Butyl-N-(2-Chloro-4-Nitro-Phenyl)-2-Hydroxy-Benzamide] |  |  |  | Ok |  |  |  | 105 | 3 |  | 
5 | 100 | 9 | CCOC(=O)/C(=C/c1cc(C(C)(C)C)c(O)c(C(C)(C)C)c1)C(C)=O [Example 69, 2-Acetyl-3-(3,5-Di-Tert-Butyl-4-Hydroxy-Phenyl)-Acrylic Acid Ethyl Ester] |  |  |  |  |  |  |  | 58 | 300 | Tox 1 mM | 40
6 |  |  | CC(C)(C)c1cc([N+](=O)[O-])cc(C(C)(C)C)c1O [Example 72, 2,6-Di-Tert-Butyl-4-Nitro-Phenol] | 13 | 100 | 100 | Ok |  |  |  |  |  |  | 
7 | 16 | 15 | CC(C)(C)c1cc(/C=C(\C#N)c2ccccn2)cc(C(C)(C)C)c1O [Example 74, 3-(3,5-Di-Tert-Butyl-4-Hydroxy-Phenyl)-2-Pyridin-2-Yl-Acrylonitrile] |  |  |  |  |  |  |  | 80 | 100 |  | 120
8 | 8 | 18 | CC(C)(C)c1cc(/C=C(\C#N)c2ccc(OC(F)(F)F)cc2)cc(C(C)(C)C)c1O [Example 80, 3-(3,5-Di-Tert-Butyl-4-Hydroxy-Phenyl)-2-(4-Trifluoromethoxy-Phenyl)-Acrylonitrile] |  |  |  |  |  |  |  | 80 | 100 | Tox 0.3 mM | 100
9 | 10 | 11 | CCOC(=O)/C(C#N)=C(/C)c1cc(C(C)(C)C)c(O)c(C(C)(C)C)c1 [Example 82, 2-Cyano-3-(3,5-Di-Tert-Butyl-4-Hydroxy-Phenyl)-But-2-Enoic Acid Ethyl Ester] |  |  |  |  |  |  |  | 100 | 30 |  | 90

Row | Structure (SMILES) | EC50 (HEP-G2 cells; [4]) [µM] | EC50 (FSK-4 cells; [7]) [µM] | EC50 (HEP-G2 cells; read-out: HEP-G2 EC50) [µM] | Emax (HEP-G2 cells; [2]) [%] | EC (Emax) (HEP-G2 cells; [3]) [µM] | Mito State-4 (isolated mitochondria) | EC50 (FSK-4 cells; 24 h) [µM] | Emax (FSK-4 cells) [%] | lowest dose which could be lethal relative to average dose giving a desired 50% increase in basal metabolic rate [1] | Emax (HEP-G2 cells; [5]) [%] | EC (Emax) (HEP-G2 cells; [6]) [µM] | HEP-G2 Tox (HEP-G2 cells) | Emax (FSK-4 cells; [8]) [%]
10 | CC(C)(C)c1cc([N+](=O)[O-])cc([N+](=O)[O-])c1O [Example 73, 2-Tert-Butyl-4,6-Dinitro-Phenol] |  | 7 | 7.3 | 70 | 300 |  |  |  |  |  |  |  | 100
11 | CCOP(=O)(OCC)/C(C#N)=C\c1cc(C(C)(C)C)c(O)c(C(C)(C)C)c1 [Example 76, 3-(3,5-Di-Tertbutyl-4-Hydroxybenzylidene)-2-(Diethylphosphonate)-Propenenitrile] |  | 3.2 | 11 | 90 | 30 |  |  |  |  |  |  |  | 150
12 | CC(C)(C)c1cc(/C=C(\C#N)c2ccc(C(F)(F)F)cc2)cc(C(C)(C)C)c1O [Example 81, 3-(3,5-Di-Tert-Butyl-4-Hydroxy-Phenyl)-2-(4-Trifluoromethyl-Phenyl)-Acrylonitrile] |  | 7 | 7 | 130 | 100 |  |  |  |  |  |  |  | 140
